# Laboratory results from patent US20160194380A1, “POTENT INHIBITORS OF HUMAN MATRIPTASE DERIVED FROM MCOTI-II VARIANTS” (MERCK PATENT GMBH, priority 2013, published 2016).
# Where a SMILES comes first, the peptide text is derived from it. Bridges are numbered along the chain shown (N, C = ends).
# Legend:
# Human matriptase-1 [1] = molecular target: T1, Human matriptase-1 (Homo sapiens, UniProt Q9Y5Y6); assay: Protease inhibition assay, matriptase-1; format: biochemical; conditions: substrate-independent inhibition constant
# T1 construct: made in house
# T1 sequence (Q9Y5Y6 615-855 limits assumed): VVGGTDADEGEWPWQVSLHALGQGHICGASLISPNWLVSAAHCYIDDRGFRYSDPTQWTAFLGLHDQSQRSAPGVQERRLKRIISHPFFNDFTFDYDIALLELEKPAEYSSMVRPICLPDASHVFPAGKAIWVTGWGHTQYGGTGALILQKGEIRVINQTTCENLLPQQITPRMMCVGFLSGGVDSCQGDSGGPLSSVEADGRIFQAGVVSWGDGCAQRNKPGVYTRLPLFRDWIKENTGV
# Experimental: (§1) D: Biol. Crystallogr., 69(2013), 114-120; Reinwarth, ChemBioChem, 14(2013), 137-146; Boy, Mol. Imaging Biol. 12(2010), 377-385] Measurements were carried out in triplicates using a Tecan Genios ELISA reader.
# [2] = molecular target: T2, Bovine pancreatic trypsin (Bos taurus, UniProt P00760); assay: Protease inhibition assay, trypsin; format: biochemical; conditions: substrate-independent inhibition constant
# T2 construct: purchased Sigma-Aldrich; host or cells: bovine pancreas
# T2 sequence (P00760 24-246): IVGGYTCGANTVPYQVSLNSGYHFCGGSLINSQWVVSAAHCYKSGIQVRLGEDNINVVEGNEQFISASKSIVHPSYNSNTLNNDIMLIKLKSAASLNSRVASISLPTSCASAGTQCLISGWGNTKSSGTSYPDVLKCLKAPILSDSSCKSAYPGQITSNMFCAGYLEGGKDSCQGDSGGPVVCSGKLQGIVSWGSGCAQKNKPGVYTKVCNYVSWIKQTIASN
# Experimental: as §1
# Human matriptase-1 [3] = assay: Protease inhibition assay, matriptase-1; format: biochemical; conditions: matriptase-1 versus trypsin
# Experimental: as §1
# [4] = tested on: pro-uPA activation by matriptase-1 on human prostate carcinoma cancer cells (PC-3); assay: Cell inhibition assay: inhibition of pro-uPA activation on PC-3 cells; format: cell-based; conditions: overnight incubation, read-out: IC50 (uPA substrate turnover, indirect determination)
# Experimental: Urokinase-type plasminogen activator (uPA) causes the degradation of the extracellular matrix and plays a critical role in tumor invasion and metastasis.
# Human prostate cancer cells (PC-3, Merck KGaA) were cultured in DMEM medium with 10% FCS at 37° C. and 5% CO2, washed with cation-free PBS and harvested by scraping. In the following 1×10^5 cells were incubated in presence of 250 μM Bz-β-Ala-Gly-Arg-pNA.AcOH (American Diagnostica) and the inhibitor of interest in defined dilutions overnight. Product formation was monitored at 405 nm before and after incubation in a microplate reader. IC50 was calculated by non-linear regression using SigmaPlot 11.
# matriptase-1 = molecular target: T3, matriptase-1 (Homo sapiens, UniProt Q9Y5Y6); conditions: literature; cited from earlier work
# T3 sequence (Q9Y5Y6 1-855): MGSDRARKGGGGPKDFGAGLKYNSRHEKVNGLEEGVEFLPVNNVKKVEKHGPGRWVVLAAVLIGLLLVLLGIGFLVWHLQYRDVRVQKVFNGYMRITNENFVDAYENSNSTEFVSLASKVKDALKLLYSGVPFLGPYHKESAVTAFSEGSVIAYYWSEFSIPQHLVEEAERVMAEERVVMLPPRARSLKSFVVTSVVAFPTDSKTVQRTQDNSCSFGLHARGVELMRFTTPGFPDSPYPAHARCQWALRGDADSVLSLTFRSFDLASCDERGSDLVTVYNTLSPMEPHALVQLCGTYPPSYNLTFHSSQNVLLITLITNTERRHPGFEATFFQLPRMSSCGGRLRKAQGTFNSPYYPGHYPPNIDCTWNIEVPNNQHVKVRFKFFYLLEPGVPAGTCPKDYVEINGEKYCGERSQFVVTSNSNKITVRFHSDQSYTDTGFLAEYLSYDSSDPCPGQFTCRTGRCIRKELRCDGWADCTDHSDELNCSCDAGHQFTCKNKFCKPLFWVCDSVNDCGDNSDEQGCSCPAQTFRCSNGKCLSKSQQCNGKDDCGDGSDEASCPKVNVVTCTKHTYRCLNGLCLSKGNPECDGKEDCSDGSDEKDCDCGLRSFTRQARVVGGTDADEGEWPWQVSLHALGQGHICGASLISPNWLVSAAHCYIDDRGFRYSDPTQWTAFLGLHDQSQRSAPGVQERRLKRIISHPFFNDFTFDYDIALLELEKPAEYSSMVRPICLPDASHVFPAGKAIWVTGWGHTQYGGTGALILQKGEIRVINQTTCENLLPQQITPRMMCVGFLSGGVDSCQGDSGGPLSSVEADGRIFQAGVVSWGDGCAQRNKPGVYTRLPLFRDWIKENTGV
compound,measurement,setting,value
"CC[C@H](C)[C@H](N)C(=O)NCC(=O)N[C@H](C(=O)N[C@H]1CSSC[C@@H]2NC(=O)[C@H](C)NC(=O)CNC(=O)[C@@H]3CCCN3C(=O)[C@@H]3CSSC[C@@H](C(=O)NCC(N)=O)NC(=O)[C@H](Cc4ccc(O)cc4)NC(=O)CNC(=O)[C@H](CC(N)=O)NC(=O)CNC(=O)[C@H](CCCNC(=N)N)NC(=O)[C@H](CSSC[C@H](NC(=O)[C@H](C)NC(=O)[C@H](CCCNC(=N)N)NC(=O)[C@H](CC(C)C)NC(=O)[C@H](CC(C)C)NC(=O)[C@H](CCCCN)NC(=O)[C@@H]4CCCN4C1=O)C(=O)N[C@@H](CCCNC(=N)N)C(=O)N[C@@H](CCCNC(=N)N)C(=O)N[C@@H](CC(=O)O)C(=O)N[C@@H](CO)C(=O)N[C@@H](CC(=O)O)C(=O)N3)NC(=O)[C@H]([C@@H](C)CC)NC2=O)C(C)C [Inhibitor 4] (H-IGVCPKLLRACRRDSDCPGACICRGNGYCG-NH2; disulfide 4-21, 11-23, 17-29)",Ki,Human matriptase-1 [1],4.4 ± 0.6 nM
same,Ki,[2],31.7 ± 4.3 nM
CC[C@H](C)[C@@H]1NC(=O)[C@@H]2CSSC[C@H](NC(=O)[C@H](CCCNC(=N)N)NC(=O)[C@H](CCCNC(=N)N)NC(=O)[C@@H](N)CC(N)=O)C(=O)N3CCC[C@H]3C(=O)N[C@@H](CCCCN)C(=O)N[C@@H](C(C)C)C(=O)N[C@@H](CC(C)C)C(=O)N[C@@H](CCCCN)C(=O)N[C@@H](C)C(=O)N[C@H]3CSSC[C@H](NC1=O)C(=O)N[C@@H](CCCNC(=N)N)C(=O)NCC(=O)N[C@@H](CC(N)=O)C(=O)NCC(=O)N[C@@H](Cc1ccc(O)cc1)C(=O)N[C@H](C(=O)NCC(N)=O)CSSC[C@H](NC(=O)[C@H](CC(=O)O)NC(=O)[C@H](CO)NC(=O)[C@H](CC(=O)O)NC(=O)[C@H](CCCNC(=N)N)NC(=O)[C@H](CCCNC(=N)N)NC3=O)C(=O)N1CCC[C@H]1C(=O)NCC(=O)N[C@@H](C)C(=O)N2 [Inhibitor 5],Ki,Human matriptase-1 [1],3.3 ± 0.4 nM
same,Ki,[2],19.2 ± 2.8 nM
"CC[C@H](C)[C@@H]1NC(=O)[C@@H]2CSSC[C@H](NC(=O)[C@@H](NC(=O)CNC(=O)[C@@H](N)CCCCN)C(C)C)C(=O)N3CCC[C@H]3C(=O)N[C@@H](CCCCN)C(=O)N[C@@H](C(C)C)C(=O)N[C@@H](CC(C)C)C(=O)N[C@@H](CCCNC(=N)N)C(=O)N[C@@H](CCCCN)C(=O)N[C@H]3CSSC[C@H](NC1=O)C(=O)N[C@@H](CCCNC(=N)N)C(=O)N[C@@H](C)C(=O)N[C@@H](CC(N)=O)C(=O)NCC(=O)N[C@@H](Cc1ccc(O)cc1)C(=O)N[C@H](C(=O)NCC(N)=O)CSSC[C@H](NC(=O)[C@H](CC(=O)O)NC(=O)[C@H](CO)NC(=O)[C@H](CC(=O)O)NC(=O)[C@H](CCCCN)NC(=O)[C@H](CCCNC(=N)N)NC3=O)C(=O)N1CCC[C@H]1C(=O)NCC(=O)N[C@@H](C)C(=O)N2 [Inhibitor 6] (H-KGVCPKVLRKCRKDSDCPGACICRANGYCG-NH2; disulfide 4-21, 11-23, 17-29)",Ki,Human matriptase-1 [1],7.8 ± 1 nM
same,Ki,[2],22.3 ± 3 nM
"CC[C@H](C)[C@@H]1NC(=O)[C@@H]2CSSC[C@H](NC(=O)[C@@H](NC(=O)CNC(=O)[C@@H](N)Cc3c[nH]c4ccccc34)C(C)C)C(=O)N3CCC[C@H]3C(=O)N[C@@H](CCCCN)C(=O)N[C@@H](C(C)C)C(=O)N[C@@H](CC(C)C)C(=O)N[C@@H](CCCNC(=N)N)C(=O)N[C@@H](CC(N)=O)C(=O)N[C@H]3CSSC[C@H](NC1=O)C(=O)N[C@@H](CC(C)C)C(=O)NCC(=O)N[C@@H](CC(N)=O)C(=O)NCC(=O)N[C@@H](Cc1ccc(O)cc1)C(=O)N[C@H](C(=O)NCC(N)=O)CSSC[C@H](NC(=O)[C@H](CC(=O)O)NC(=O)[C@H](CO)NC(=O)[C@H](CC(=O)O)NC(=O)[C@H](CCCNC(=N)N)NC(=O)[C@H](CCCNC(=N)N)NC3=O)C(=O)N1CCC[C@H]1C(=O)NCC(=O)N[C@@H](C)C(=O)N2 [Inhibitor 7] (H-WGVCPKVLRNCRRDSDCPGACICLGNGYCG-NH2; disulfide 4-21, 11-23, 17-29; N-terminus assumed)",Inhibitory activity for matriptase-1 relative to trypsin,Human matriptase-1 [3],approximately fortyfold
same,Ki,Human matriptase-1 [1],0.83 ± 0.14 nM
same,Ki,[2],35.8 ± 4.7 nM
same,IC50,[4],213 nM
H-R-Q-A-R-Bt,"Ki (matriptase-1), previously reported",matriptase-1,picomolar
same,"Selectivity, previously reported",matriptase-1,low selectivity
